# According to paper PMC10281575, “PfCRT mutations conferring piperaquine resistance in falciparum malaria shape the kinetics of quinoline drug binding and transport” (PLOS Pathogens, 2023):
# Several values for one entry are separate records, joined by “and”; a condition that tells them apart may be missing. Equal entries are not always repeated.
# Legend:
# [1] = target: T1, PfCRT^HB3 (Plasmodium falciparum, UniProt Q8IBZ9); assay: Radiolabeled drug uptake in X. laevis oocytes expressing wild type PfCRT^HB3; type: cell-based; conditions: 50 μM PPQ, pH 6.0
# T1 construct: expressed in transfected cells; host or cells: Xenopus laevis oocytes injected with in vitro transcribed RNA (pSP64T)
# T1 sequence (Q8IBZ9 whole entry): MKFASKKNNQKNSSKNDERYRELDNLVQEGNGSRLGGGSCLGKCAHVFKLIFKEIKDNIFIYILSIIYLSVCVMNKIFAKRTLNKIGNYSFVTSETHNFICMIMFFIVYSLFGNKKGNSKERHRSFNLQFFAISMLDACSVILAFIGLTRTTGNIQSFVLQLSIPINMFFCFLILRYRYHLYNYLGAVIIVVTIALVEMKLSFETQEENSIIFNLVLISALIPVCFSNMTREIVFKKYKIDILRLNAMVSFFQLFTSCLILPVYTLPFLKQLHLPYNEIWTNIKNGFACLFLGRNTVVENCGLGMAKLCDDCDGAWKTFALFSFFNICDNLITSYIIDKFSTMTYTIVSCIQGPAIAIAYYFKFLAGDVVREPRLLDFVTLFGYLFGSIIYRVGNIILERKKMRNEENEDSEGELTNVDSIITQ
# Protocol: (§1) Adult female X. laevis frogs (purchased from NASCO) were anesthetized by submersion in a solution of 0.3% (w/v) 3-amino benzoate methanesulfonate for 15 min. Sections of the ovary were surgically removed and placed in Ca^2+-free ND96 buffer supplemented with 0.1% collagenase D (w/v; Roche), 0.5% BSA (w/v) and 9 mM Na2HPO4 at 18°C for 14–16 h while gently shaking. The oocytes were then washed several times with ND96 buffer (5 mM HEPES, pH 7.5, 96 mM NaCl, 2 mM KCl, 1.8 mM CaCl2, 1 mM MgCl2), supplemented with […] gentamycin. Healthy-looking stage V-VI oocytes were manually selected and randomly grouped for injection. A codon-optimized coding sequence of PfCRT was subcloned into the pSP64T expression vector and subsequently linearized using the restriction endonuclease BamHI or SalI (New England Biolabs GmbH). RNA for injection was transcribed in vitro using the mMESSAGE mMACHINE SP6 Transcription kit (Ambion), diluted with nuclease-free water to a final concentration of 0.6 μg/μL and stored at -80°C. RNA was injected using precision-bore glass capillary tubes (3.5-inch glass capillaries; Drummond Scientific Co.), which were pulled on a vertical puller (P-87 Flaming/Brown micropipette puller, Sutter Instrument Co.) and graduated. The micropipettes were connected to a microinjector (Nanoject II Auto-Nanoliter Injector, Drummond Scientific Co.). Injection was conducted under stereomicroscopic control. 50 nL of nuclease-free water alone (control oocytes) or 50 nL of nuclease-free water containing 30 ng of RNA was injected per oocyte. Injected oocytes were kept for 72 h at 18°C in ND96 buffer with two daily buffer changes before being used for further experiments.
# (§2) Drug transport assays were performed as previously described. Briefly, measurements of radiolabeled drug uptake were made over 1 h, unless otherwise specified. […] Where specified, one or more unlabeled drugs were also present at the indicated concentrations. […] The uptake assays were terminated by removing the oocytes from the reaction medium and washing them three times with 2 mL of ice-cold ND96 buffer. Each oocyte was transferred to a separate scintillation vial and lysed by the addition of 200 μL of a 5% SDS solution. The radioactivity in the sample was measured using a liquid scintillation analyser Tri-Carb 4910 TR (PerkinElmer). Water-injected oocytes were analyzed in parallel as a negative control. The buffer from each condition was measured in duplicate in parallel to each experiment to transform counts per minute into pmol of drug. Drug uptake attributable to PfCRT was determined by subtracting the background uptake from water-injected oocytes from that of PfCRT-expressing oocytes. In all cases, at least three independent experiments were performed on oocytes from different frogs, and for each condition in an experiment, measurements were made from 10 oocytes per treatment.
# [2] = target: T2, PfCRT^Dd2 (Plasmodium falciparum, UniProt Q8IBZ9, A220S/I356T/K76T/M74I/N326S/N75E/Q271E/R371I); assay: Radiolabeled drug uptake (transport assay) in Xenopus laevis oocytes expressing PfCRT^Dd2; type: cell-based; design: expressed in transfected cells; host or cells: Xenopus laevis oocytes injected with in vitro transcribed RNA (pSP64T)
# T2 sequence (Q8IBZ9 1-424 M74I/N75E/K76T/A220S/Q271E/N326S/I356T/R371I): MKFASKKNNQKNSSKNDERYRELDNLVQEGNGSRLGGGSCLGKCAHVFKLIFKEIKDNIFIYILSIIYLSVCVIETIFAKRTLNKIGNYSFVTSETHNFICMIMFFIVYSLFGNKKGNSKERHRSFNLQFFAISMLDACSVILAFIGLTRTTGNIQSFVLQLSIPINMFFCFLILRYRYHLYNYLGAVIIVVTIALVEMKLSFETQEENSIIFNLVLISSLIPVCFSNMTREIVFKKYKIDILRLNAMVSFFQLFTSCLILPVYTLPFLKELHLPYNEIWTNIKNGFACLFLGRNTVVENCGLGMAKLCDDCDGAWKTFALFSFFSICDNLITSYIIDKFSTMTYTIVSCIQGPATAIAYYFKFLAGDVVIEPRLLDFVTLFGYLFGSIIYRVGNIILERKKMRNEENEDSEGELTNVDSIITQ
# Protocol: The two kinetic parameters were derived by fitting the Michaelis-Menten equation to the kinetic data (Table 1).
# as §1, §2
# [3] = total uptake, one value per biological replicate
# [4] = water-injected uptake subtracted, per replicate
# [5] = 50 μM PPQ, pH 6.0, total uptake, one value per biological replicate
# [6] = 50 μM PPQ, pH 6.0, water-injected uptake subtracted, per replicate
# [7] = 60 min, pH 6, per biological replicate
smiles,measurement,setting,value
"Clc1ccc2c(N3CCN(CCCN4CCN(c5ccnc6cc(Cl)ccc56)CC4)CC3)ccnc2c1 [PPQ, piperaquine]",PfCRTHB3I PPQ uptake at 30 min,[1]; [3],72.50 pmol oocyte-1 and 74.50 pmol oocyte-1 and 59.24 pmol oocyte-1
same,PfCRTHB3 PPQ uptake at 10 min,[1]; [3],38.64 pmol oocyte-1 and 39.15 pmol oocyte-1 and 28.68 pmol oocyte-1
same,PfCRTHB3 PPQ uptake at 60 min,[1]; [3],123.26 pmol oocyte-1 and 113.71 pmol oocyte-1 and 93.83 pmol oocyte-1
same,PfCRTHB3 PPQ uptake at 90 min,[1]; [3],136.75 pmol oocyte-1 and 135.43 pmol oocyte-1 and 118.84 pmol oocyte-1
same,PfCRTHB3 PPQ uptake at 120 min,[1]; [3],198.78 pmol oocyte-1 and 176.89 pmol oocyte-1 and 174.87 pmol oocyte-1
same,PfCRTHB3 PPQ uptake at 180 min,[1]; [3],161.64 pmol oocyte-1 and 186.48 pmol oocyte-1 and 220.34 pmol oocyte-1
same,PfCRTHB3-mediated PPQ uptake at 10 min,[1]; [4],8.47 pmol oocyte-1 and 8.98 pmol oocyte-1 and -1.48 pmol oocyte-1
same,PfCRTHB3-mediated PPQ uptake at 30 min,[1]; [4],7.50 pmol oocyte-1 and 9.50 pmol oocyte-1 and -5.76 pmol oocyte-1
same,PfCRTHB3-mediated PPQ uptake at 60 min,[1]; [4],17.15 pmol oocyte-1 and 7.60 pmol oocyte-1 and -12.28 pmol oocyte-1
same,PfCRTHB3-mediated PPQ uptake at 90 min,[1]; [4],16.35 pmol oocyte-1 and 15.03 pmol oocyte-1 and -1.56 pmol oocyte-1
same,PfCRTHB3-mediated PPQ uptake at 120 min,[1]; [4],-20.70 pmol oocyte-1 and -22.71 pmol oocyte-1 and 1.19 pmol oocyte-1
same,PfCRTHB3-mediated PPQ uptake at 180 min,[1]; [4],33.25 pmol oocyte-1 and -25.45 pmol oocyte-1 and -0.62 pmol oocyte-1
same,PfCRTDd2-mediated PPQ uptake at 10 µM PPQ,"[2]; 10 µM PPQ, single replicates",7.56 pmol oocyte-1 h-1 and 10.37 pmol oocyte-1 h-1 and 9.52 pmol oocyte-1 h-1
same,PfCRTDd2 PPQ uptake at 10 min,[2]; [5],37.95 pmol oocyte-1 and 17.31 pmol oocyte-1 and 66.26 pmol oocyte-1 and 58.58 pmol oocyte-1 and 53.50 pmol oocyte-1 and 34.40 pmol oocyte-1
same,PfCRTDd2 PPQ uptake at 30 min,[2]; [5],69.53 pmol oocyte-1 and 108.95 pmol oocyte-1 and 50.26 pmol oocyte-1
same,PfCRTDd2 PPQ uptake at 60 min,[2]; [5],123.14 pmol oocyte-1 and 94.65 pmol oocyte-1 and 103.77 pmol oocyte-1 and 219.78 pmol oocyte-1 and 140.45 pmol oocyte-1 and 145.26 pmol oocyte-1
same,PfCRTDd2 PPQ uptake at 90 min,[2]; [5],183.05 pmol oocyte-1 and 183.06 pmol oocyte-1 and 147.41 pmol oocyte-1
same,PfCRTDd2 PPQ uptake at 120 min,[2]; [5],118.72 pmol oocyte-1 and 197.79 pmol oocyte-1 and 316.81 pmol oocyte-1 and 143.54 pmol oocyte-1 and 477.33 pmol oocyte-1
same,PfCRTDd2 PPQ uptake at 180 min,[2]; [5],167.85 pmol oocyte-1 and 274.70 pmol oocyte-1 and 265.00 pmol oocyte-1
same,PfCRTDd2-mediated PPQ uptake at 10 min,[2]; [6],17.92 pmol oocyte-1 and 6.16 pmol oocyte-1 and 19.07 pmol oocyte-1 and 16.58 pmol oocyte-1 and 10.50 pmol oocyte-1 and 10.36 pmol oocyte-1
same,PfCRTDd2-mediated PPQ uptake at 30 min,[2]; [6],29.61 pmol oocyte-1 and 27.31 pmol oocyte-1 and 14.01 pmol oocyte-1
same,PfCRTDd2-mediated PPQ uptake at 60 min,[2]; [6],28.14 pmol oocyte-1 and 21.87 pmol oocyte-1 and 89.78 pmol oocyte-1 and 46.28 pmol oocyte-1 and 30.01 pmol oocyte-1 and 33.33 pmol oocyte-1
same,PfCRTDd2-mediated PPQ uptake at 90 min,[2]; [6],41.43 pmol oocyte-1 and 74.11 pmol oocyte-1 and 31.93 pmol oocyte-1
same,PfCRTDd2-mediated PPQ uptake at 120 min,[2]; [6],30.25 pmol oocyte-1 and 19.89 pmol oocyte-1 and 85.94 pmol oocyte-1 and 81.35 pmol oocyte-1 and 70.65 pmol oocyte-1
same,PfCRTDd2-mediated PPQ uptake at 180 min,[2]; [6],32.52 pmol oocyte-1 and 76.65 pmol oocyte-1 and 72.50 pmol oocyte-1
same,PfCRTDd2-mediated PPQ uptake at 50 µM PPQ,"[2]; 50 µM PPQ, single replicates",28.14 pmol oocyte-1 h-1 and 21.87 pmol oocyte-1 h-1 and 89.78 pmol oocyte-1 h-1 and 46.28 pmol oocyte-1 h-1 and 30.01 pmol oocyte-1 h-1 and 33.33 pmol oocyte-1 h-1 and 10.90 pmol oocyte-1 h-1
same,PfCRTDd2-mediated PPQ uptake at 100 µM PPQ,"[2]; 100 µM PPQ, single replicates",59.97 pmol oocyte-1 h-1 and 45.22 pmol oocyte-1 h-1 and 64.52 pmol oocyte-1 h-1
same,PfCRTDd2-mediated PPQ uptake at 200 µM PPQ,"[2]; 200 µM PPQ, single replicates",87.13 pmol oocyte-1 h-1 and 109.05 pmol oocyte-1 h-1 and 57.84 pmol oocyte-1 h-1
same,PfCRTDd2-mediated PPQ uptake at 300 µM PPQ,"[2]; 300 µM PPQ, single replicates",90.42 pmol oocyte-1 h-1 and 110.91 pmol oocyte-1 h-1 and 77.44 pmol oocyte-1 h-1
same,PfCRTDd2-mediated PPQ uptake at 400 µM PPQ,"[2]; 400 µM PPQ, single replicates",113.37 pmol oocyte-1 h-1 and 109.88 pmol oocyte-1 h-1 and 74.49 pmol oocyte-1 h-1
same,PfCRTDd2-mediated PPQ uptake at 500 µM PPQ,"[2]; 500 µM PPQ, single replicates",118.94 pmol oocyte-1 h-1 and 82.44 pmol oocyte-1 h-1 and 112.35 pmol oocyte-1 h-1
same,PfCRTDd2-mediated PPQ uptake at 10 µM PPQ,[2]; [7],7.56 pmol oocyte-1 h-1 and 10.37 pmol oocyte-1 h-1 and 9.52 pmol oocyte-1 h-1
same,PfCRTDd2-mediated PPQ uptake at 50 µM PPQ,[2]; [7],33.33 pmol oocyte-1 h-1 and 10.9 pmol oocyte-1 h-1 and 28.14 pmol oocyte-1 h-1 and 21.87 pmol oocyte-1 h-1 and 89.78 pmol oocyte-1 h-1 and 46.28 pmol oocyte-1 h-1 and 30.01 pmol oocyte-1 h-1
same,PfCRTDd2-mediated PPQ uptake at 100 µM PPQ,[2]; [7],59.97 pmol oocyte-1 h-1 and 45.22 pmol oocyte-1 h-1 and 64.52 pmol oocyte-1 h-1
same,PfCRTDd2-mediated PPQ uptake at 200 µM PPQ,[2]; [7],87.13 pmol oocyte-1 h-1 and 109.05 pmol oocyte-1 h-1 and 57.84 pmol oocyte-1 h-1
same,PfCRTDd2-mediated PPQ uptake at 300 µM PPQ,[2]; [7],90.42 pmol oocyte-1 h-1 and 110.91 pmol oocyte-1 h-1 and 77.44 pmol oocyte-1 h-1
same,PfCRTDd2-mediated PPQ uptake at 400 µM PPQ,[2]; [7],113.37 pmol oocyte-1 h-1 and 109.88 pmol oocyte-1 h-1 and 74.49 pmol oocyte-1 h-1
same,PfCRTDd2-mediated PPQ uptake at 500 µM PPQ,[2]; [7],118.94 pmol oocyte-1 h-1 and 82.44 pmol oocyte-1 h-1 and 112.35 pmol oocyte-1 h-1
same,"Vmax, maximal velocity of drug transport","[2]; Michaelis-Menten fit, 10-500 μM drug, 60 min, pH 6",131 ± 3 pmol oocyte^-1 h^-1 and 259.88 pmol oocyte^-1 h^-1
same,Km,"[2]; Michaelis-Menten fit, 10-500 μM drug, 60 min, pH 6, read-out: KM, Michaelis constant",125 ± 9 µM
